Literature values as cited in PubChem BioAssay AID1259409 (Chemical Carcinogenesis Research Information System (CCRIS), 2018).

System: rodent chemically induced tumor inhibition, incidence and multiplicity
Experiment: CCRIS tumor inhibitor studies
Settings: Promoter: NONE USED

In the case of `CC1=C(/C=C/C(C)=C/C=C/C(C)=C/C=C/C=C(C)/C=C/C=C(C)/C=C/C2=C(C)C(=O)CCC2(C)C)C(C)(C)CCC1=O`, the “tumour outcome (control, treated, inhibition, significance)” value (Carcinogen: 4-NITROQUINOLINE-1-OXIDE, 56-57-5, Dose [Inhibitor]: 0, 100 PPM IN DIET FOR 10 WK BEGINNING PRIOR TO CARCINOGEN TREATMENT (STUDY DURATION: 32 WK), Route [Inhibitor]: ORAL, Species: RAT, Strain/Sex: F344/MALE, Target Tissue: Type of Lesion: TONGUE: PAPILLOMA, Dose [Carcinogen]: 20 PPM IN DRINKING WATER FOR 8 WK) is listed as 4/24 (17%), 0/17 (0%), 100%, p<0.05, the “tumour outcome (control, treated, inhibition, significance)” value (Carcinogen: 4-NITROQUINOLINE-1-OXIDE, 56-57-5, Dose [Inhibitor]: 0, 100 PPM IN DIET FOR 10 WK BEGINNING PRIOR TO CARCINOGEN TREATMENT (STUDY DURATION: 32 WK), Route [Inhibitor]: ORAL, Species: RAT, Strain/Sex: F344/MALE, Target Tissue: Type of Lesion: TONGUE: SQUAMOUS CELL CARCINOMA, Dose [Carcinogen]: 20 PPM IN DRINKING WATER FOR 8 WK) is listed as 13/24 (54%), 0/17 (0%), 100%, p<0.05 and the “tumour outcome (control, treated, inhibition, significance)” value (Carcinogen: 4-NITROQUINOLINE-1-OXIDE, 56-57-5, Dose [Inhibitor]: 0, 100 PPM IN DIET FOR 22 WK BEGINNING 1 WK POST CARCINOGEN TREATMENT (STUDY DURATION: 32 WK), Route [Inhibitor]: ORAL, Species: RAT, Strain/Sex: F344/MALE, Target Tissue: Type of Lesion: TONGUE: PAPILLOMA, Dose [Carcinogen]: 20 PPM IN DRINKING WATER FOR 8 WK) is listed as 4/24 (17%), 1/19 (5%), 71%, p<0.05. The “tumour outcome (control, treated, inhibition, significance)” value (Carcinogen: 4-NITROQUINOLINE-1-OXIDE, 56-57-5, Dose [Inhibitor]: 0, 100 PPM IN DIET FOR 22 WK BEGINNING 1 WK POST CARCINOGEN TREATMENT (STUDY DURATION: 32 WK), Route [Inhibitor]: ORAL, Species: RAT, Strain/Sex: F344/MALE, Target Tissue: Type of Lesion: TONGUE: SQUAMOUS CELL CARCINOMA, Dose [Carcinogen]: 20 PPM IN DRINKING WATER FOR 8 WK) was 13/24 (54%), 1/19 (5%), 91%, p<0.05, the “tumour outcome (control, treated, inhibition, significance)” value (Carcinogen: 7,12-DIMETHYLBENZ[A]ANTHRACENE, 57-97-6, Dose [Inhibitor]: 0, 1130 MG/KG OF DIET FROM DAY 34 TO 54 OF AGE (STUDY DURATION: 200 D), Route [Inhibitor]: ORAL, Species: RAT, Strain/Sex: SPRAGUE-DAWLEY/FEMALE, Target Tissue: Type of Lesion: MAMMARY GLAND: ADENOCARCINOMA, Dose [Carcinogen]: 15 MG/RAT ONCE AT 55 D OF AGE) was 93%, 80%, 14%, not significant and the “tumour outcome (control, treated, inhibition, significance)” value (Carcinogen: 7,12-DIMETHYLBENZ[A]ANTHRACENE, 57-97-6, Dose [Inhibitor]: 0, 1130 MG/KG OF DIET FROM DAY 34 TO 54 OF AGE (STUDY DURATION: 200 D), Route [Inhibitor]: ORAL, Species: RAT, Strain/Sex: SPRAGUE-DAWLEY/FEMALE, Target Tissue: Type of Lesion: MAMMARY GLAND: BENIGN TUMORS, Dose [Carcinogen]: 15 MG/RAT ONCE AT 55 D OF AGE) was 28%, 30%, -7%, not calculated. The “tumour outcome (control, treated, inhibition, significance)” value (Carcinogen: 7,12-DIMETHYLBENZ[A]ANTHRACENE, 57-97-6, Dose [Inhibitor]: 0, 3390 MG/KG OF DIET FROM DAY 34 TO 54 OF AGE (STUDY DURATION: 200 D), Route [Inhibitor]: ORAL, Species: RAT, Strain/Sex: SPRAGUE-DAWLEY/FEMALE, Target Tissue: Type of Lesion: MAMMARY GLAND: ADENOCARCINOMA, Dose [Carcinogen]: 15 MG/RAT ONCE AT 55 D OF AGE) was 93%, 67%, 28%, p<0.05, the “tumour outcome (control, treated, inhibition, significance)” value (Carcinogen: 7,12-DIMETHYLBENZ[A]ANTHRACENE, 57-97-6, Dose [Inhibitor]: 0, 3390 MG/KG OF DIET FROM DAY 34 TO 54 OF AGE (STUDY DURATION: 200 D), Route [Inhibitor]: ORAL, Species: RAT, Strain/Sex: SPRAGUE-DAWLEY/FEMALE, Target Tissue: Type of Lesion: MAMMARY GLAND: BENIGN TUMORS, Dose [Carcinogen]: 15 MG/RAT ONCE AT 55 D OF AGE) was 28%, 40%, -43%, not calculated and the “tumour outcome (control, treated, inhibition, significance)” value (Carcinogen: 7,12-DIMETHYLBENZ[A]ANTHRACENE, 57-97-6, Dose [Inhibitor]: 140 UG (1.5 MG/KG BW) IN 0.4 ML MINERAL OIL 3/WK FOR 28 WK (STUDY DURATION: 28 WK), Route [Inhibitor]: ORAL, Species: HAMSTER, Strain/Sex: SYRIAN/MALE, Target Tissue: Type of Lesion: SKIN: CARCINOMA, Dose [Carcinogen]: 0.1% IN HEAVY MINERAL OIL APPLIED TO BUCCAL POUCH 3/WK FOR 28 WK) was 20/20 (100%), 2/20 (10%), 90%, not calculated. For the same compound, the “tumour outcome (control, treated, inhibition, significance)” value (Carcinogen: 7,12-DIMETHYLBENZ[A]ANTHRACENE, 57-97-6, Dose [Inhibitor]: 250 MG/KG IN DIET FOR 6 WK PRIOR TO CARCINOGEN DOSE AND CONTINUING FOR 21-22 WK POST CARCINOGEN DOSE (STUDY DURATION: 28, Route [Inhibitor]: ORAL, Species: RAT, Strain/Sex: SPRAGUE-DAWLEY/MALE, Target Tissue: Type of Lesion: SALIVARY GLAND: TUMOR, Dose [Carcinogen]: 1 MG IN 20 µL OLIVE OIL INJECTED INTO SUBMANDIBULAR GLAND ONCE) was 20/28 (71%), 21/30 (70%), 1%, not significant, the “tumour outcome (control, treated, inhibition, significance)” value (Carcinogen: BENZO[A]PYRENE, 50-32-8, Dose [Inhibitor]: 0, 4.7 MICROMOLAR/D IN 0.1 ML PEANUT OIL BEGINNING 2 WK PRIOR TO CARCINOGEN TREATMENT AND CONTINUING TO 2 WK POST CARCIN, Route [Inhibitor]: GAVAGE, Species: MOUSE, Strain/Sex: SWISS/FEMALE, Target Tissue: Type of Lesion: FORESTOMACH: TUMOR, Dose [Carcinogen]: 1 MG 2/WK IN 0.1 ML PEANUT OIL FOR 4 WK) was 20/20 (100%), 4/20 (20%), 80%, p<0.001 and the “tumour outcome (control, treated, inhibition, significance)” value (Carcinogen: N-BUTYL-N-(4-HYDROXYBUTYL)NITROSAMINE, 3817-11-6, Dose [Inhibitor]: 0, 0.1% IN DIET BEGINNING 5 WK PRIOR TO CARCINOGEN TREATMENT AND CONTINUING FOR DURATION OF STUDY (STUDY DURATION: 7 MO), Route [Inhibitor]: ORAL, Species: MOUSE, Strain/Sex: B6D2F1/MALE, Target Tissue: Type of Lesion: BLADDER: CARCINOMA IN SITU, Dose [Carcinogen]: 5 MG IN SALINE SOLUTION 2/WK FOR 9 WK) was 7/24 (29%), 5/24 (21%), 28%, not calculated. For the same compound, the “tumour outcome (control, treated, inhibition, significance)” value (Carcinogen: N-BUTYL-N-(4-HYDROXYBUTYL)NITROSAMINE, 3817-11-6, Dose [Inhibitor]: 0, 0.1% IN DIET BEGINNING 5 WK PRIOR TO CARCINOGEN TREATMENT AND CONTINUING FOR DURATION OF STUDY (STUDY DURATION: 7 MO), Route [Inhibitor]: ORAL, Species: MOUSE, Strain/Sex: B6D2F1/MALE, Target Tissue: Type of Lesion: BLADDER: TRANSITIONAL CELL CARCINOMA, Dose [Carcinogen]: 5 MG IN SALINE SOLUTION 2/WK FOR 9 WK) was 8/24 (33%), 10/24 (42%), -27%, not calculated, the “tumour outcome (control, treated, inhibition, significance)” value (Carcinogen: N-BUTYL-N-(4-HYDROXYBUTYL)NITROSAMINE, 3817-11-6, Dose [Inhibitor]: 0, 0.1% IN DIET BEGINNING 5 WK PRIOR TO CARCINOGEN TREATMENT AND CONTINUING FOR DURATION OF STUDY (STUDY DURATION: 7 MO), Route [Inhibitor]: ORAL, Species: MOUSE, Strain/Sex: B6D2F1/MALE, Target Tissue: Type of Lesion: BLADDER: TUMOR, Dose [Carcinogen]: 5 MG IN SALINE SOLUTION 2/WK FOR 9 WK) was 15/24 (63%), 15/24 (63%), 0%, not significant and the “tumour outcome (control, treated, inhibition, significance)” value (Carcinogen: N-BUTYL-N-(4-HYDROXYBUTYL)NITROSAMINE, 3817-11-6, Dose [Inhibitor]: 0, 50 PPM IN DRINKING WATER FOR 2O WK BEGINNING 1 WK POST CARCINOGEN TREATMENT (STUDY DURATION: 41 WK), Route [Inhibitor]: ORAL, Species: MOUSE, Strain/Sex: ICR/MALE, Target Tissue: Type of Lesion: URINARY BLADDER: CARCINOMA, Dose [Carcinogen]: 250 PPM IN DRINKING WATER FOR 20 WK) was 15/36 (42%), 10/31 (33%), 21%, not significant. For the same compound, the “tumour outcome (control, treated, inhibition, significance)” value (Carcinogen: N-BUTYL-N-(4-HYDROXYBUTYL)NITROSAMINE, 3817-11-6, Dose [Inhibitor]: 0, 50 PPM IN DRINKING WATER FOR 20 WK BEGINNING 1 WK POST CARCINOGEN TREATMENT (STUDY DURATION: 41 WK), Route [Inhibitor]: ORAL, Species: MOUSE, Strain/Sex: ICR/MALE, Target Tissue: Type of Lesion: URINARY BLADDER: PAPILLOMA, Dose [Carcinogen]: 250 PPM IN DRINKING WATER FOR 20 WK) was 2/36 (6%), 3/31 (10%), -67%, not significant, the “tumour outcome (control, treated, inhibition, significance)” value (Carcinogen: N-METHYL-N-NITROSOUREA, 684-93-5, Dose [Inhibitor]: 0, 1130 MG/KG OF DIET BEGINNING 2 D POST CARCINOGEN DOSE AND CONTINUING FOR DURATION OF STUDY (STUDY DURATION: 90 D), Route [Inhibitor]: ORAL, Species: RAT, Strain/Sex: SPRAGUE-DAWLEY/FEMALE, Target Tissue: Type of Lesion: MAMMARY GLAND: ADENOCARCINOMA, Dose [Carcinogen]: 45 MG/KG BW ONCE AT 50 D OF AGE) was 100%, 100%, 0%, not significant and the “tumour outcome (control, treated, inhibition, significance)” value (Carcinogen: N-METHYL-N-NITROSOUREA, 684-93-5, Dose [Inhibitor]: 0, 3390 MG/KG OF DIET BEGINNING 2 D POST CARCINOGEN DOSE AND CONTINUING FOR DURATION OF STUDY (STUDY DURATION: 90 D), Route [Inhibitor]: ORAL, Species: RAT, Strain/Sex: SPRAGUE-DAWLEY/FEMALE, Target Tissue: Type of Lesion: MAMMARY GLAND: ADENOCARCINOMA, Dose [Carcinogen]: 45 MG/KG BW ONCE AT 50 D OF AGE) was 100%, 90%, 10%, not calculated.
